From ChEMBL document CHEMBL1131447 (J Med Chem, 1998)
pIC50, pKi: −log10 of the molar value.

Assays:
[1] = target: T1, 5-hydroxytryptamine receptor 2A (Rattus norvegicus, UniProt P14842)
[2] = tested on: Mus musculus; experiment: In vivo antipsychotic activity measured by the inhibition of apomorphine-induced climbing behavior in mice after 30 min po administration.; assay type: functional; conditions: 0.5 h
[3] = tested on: Rattus norvegicus; experiment: In vivo antipsychotic activity measured by the induction of catalepsy in rats after po administration.; assay type: functional
[4] = tested on: Rattus norvegicus; experiment: In vivo antipsychotic activity measured by the induction of catalepsy in rats after po administration; assay type: functional
[5] = target: T2, 5-hydroxytryptamine receptor 1A (Rattus norvegicus, UniProt P19327); experiment: Binding affinity measured at the 5-hydroxytryptamine 1A receptor by the inhibition of [3H]8-OH-DPAT binding to rat cortex using unlabeled buspirone for nonspecific binding.
T2 sequence (P19327 whole entry): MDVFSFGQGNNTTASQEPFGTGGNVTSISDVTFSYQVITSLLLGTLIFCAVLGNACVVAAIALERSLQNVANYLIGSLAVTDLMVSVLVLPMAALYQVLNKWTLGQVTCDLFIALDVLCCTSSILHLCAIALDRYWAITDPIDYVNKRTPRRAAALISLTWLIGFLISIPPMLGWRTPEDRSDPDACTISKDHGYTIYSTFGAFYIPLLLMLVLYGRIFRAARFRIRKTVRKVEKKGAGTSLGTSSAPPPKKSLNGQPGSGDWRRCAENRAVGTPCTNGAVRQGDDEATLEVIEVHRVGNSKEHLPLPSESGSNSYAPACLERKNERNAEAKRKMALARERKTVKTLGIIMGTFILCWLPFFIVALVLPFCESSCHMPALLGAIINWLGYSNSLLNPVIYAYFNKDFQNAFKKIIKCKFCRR

[6] = target: T3, Adrenergic receptor alpha-2 (Rattus norvegicus, UniProt P22086+P19328+P22909); experiment: Binding affinity measured at the Alpha-2 adrenergic receptor by the inhibition of [3H]clonidine binding to rat cortex using unlabeled NAbitartrate for nonspecific binding.
T3 sequence (P22086 whole entry): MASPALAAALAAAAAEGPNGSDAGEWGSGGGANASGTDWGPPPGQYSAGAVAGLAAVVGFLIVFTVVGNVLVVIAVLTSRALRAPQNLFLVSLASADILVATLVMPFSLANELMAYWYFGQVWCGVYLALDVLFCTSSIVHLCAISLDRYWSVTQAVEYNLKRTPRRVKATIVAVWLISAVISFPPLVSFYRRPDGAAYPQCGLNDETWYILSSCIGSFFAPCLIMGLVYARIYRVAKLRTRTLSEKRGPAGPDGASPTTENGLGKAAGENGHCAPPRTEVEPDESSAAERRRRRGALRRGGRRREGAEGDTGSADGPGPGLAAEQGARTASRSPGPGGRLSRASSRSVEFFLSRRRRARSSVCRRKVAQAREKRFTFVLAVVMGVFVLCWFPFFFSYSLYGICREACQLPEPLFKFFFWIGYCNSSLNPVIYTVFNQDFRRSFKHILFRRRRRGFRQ
T3 sequence (P19328 whole entry): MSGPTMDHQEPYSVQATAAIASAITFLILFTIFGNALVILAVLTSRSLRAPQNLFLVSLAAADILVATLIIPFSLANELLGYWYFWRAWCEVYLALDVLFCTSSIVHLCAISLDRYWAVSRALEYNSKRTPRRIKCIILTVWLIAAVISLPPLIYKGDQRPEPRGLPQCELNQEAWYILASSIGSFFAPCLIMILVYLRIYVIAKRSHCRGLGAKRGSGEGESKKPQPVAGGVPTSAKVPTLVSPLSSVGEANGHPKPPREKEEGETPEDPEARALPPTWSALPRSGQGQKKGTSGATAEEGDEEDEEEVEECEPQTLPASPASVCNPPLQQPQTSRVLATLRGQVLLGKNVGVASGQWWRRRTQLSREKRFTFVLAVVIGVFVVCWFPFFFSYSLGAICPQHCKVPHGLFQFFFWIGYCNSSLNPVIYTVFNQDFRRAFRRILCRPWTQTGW
T3 sequence (P22909 whole entry): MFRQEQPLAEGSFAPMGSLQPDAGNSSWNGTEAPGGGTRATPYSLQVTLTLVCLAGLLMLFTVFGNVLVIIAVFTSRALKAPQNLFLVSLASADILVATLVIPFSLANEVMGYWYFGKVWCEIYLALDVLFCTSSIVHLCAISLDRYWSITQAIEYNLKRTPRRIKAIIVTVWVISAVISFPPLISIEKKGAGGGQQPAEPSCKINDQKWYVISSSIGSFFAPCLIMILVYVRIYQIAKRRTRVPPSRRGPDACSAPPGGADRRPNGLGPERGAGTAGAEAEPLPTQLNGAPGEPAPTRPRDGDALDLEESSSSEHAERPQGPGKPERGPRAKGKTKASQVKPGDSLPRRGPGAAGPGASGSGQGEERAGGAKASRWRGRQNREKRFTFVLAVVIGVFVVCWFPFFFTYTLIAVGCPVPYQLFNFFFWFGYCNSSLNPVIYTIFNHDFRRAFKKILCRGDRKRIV

[7] = target: Adrenergic receptor beta (Rattus norvegicus, UniProt P18090+P10608+P26255); experiment: Binding affinity measured at the Beta adrenergic receptor by the inhibition of [3H]DHA binding to rat cortex using unlabeled isoprenalin for nonspecific binding.
[8] = target: D(3) dopamine receptor (Homo sapiens, UniProt P35462); experiment: Binding affinity measured at the Dopamine receptor D3 by the inhibition of [3H]YM-09151-2 binding to human recombinant CCL 1.3 cells using unlabeled 7-OH-DPAT for nonspecific binding.
[9] = species: Mus musculus; experiment: Inhibition of grooming-induced by SKF 38393 in mice.; assay type: functional
[10] = species: Mus musculus; experiment: Inhibition of p-chloroamphetamine-induced hyperactivity in mice.; assay type: functional
[11] = target: Muscarinic acetylcholine receptor; experiment: Binding affinity measured at the Muscarinic acetylcholine receptor by the inhibition of [3H]-pyrilamine binding to guinea pig cerebellum using unlabeled Triprolidine for nonspecific binding.; assay type: tissue-based, Cavia porcellus
[12] = species: Rattus norvegicus; experiment: Inhibition of apomorphine-induced stereotypy in rats.; assay type: functional
[13] = species: Mus musculus; experiment: Inhibition of head twitches-induced by 2,5-dimethoxy-4-iodoamphetamine in mice.; assay type: functional
[14] = target: T1, 5-hydroxytryptamine receptor 2A; remark: listed apart in the source
Description: Binding affinity measured at the 5-hydroxytryptamine 2A receptor by the inhibition of [3H]ketanserin binding to rat cortex using unlabeled mianserin for nonspecific binding.

[15] = target: T4, Alpha-1A adrenergic receptor (Rattus norvegicus, UniProt P43140)
T4 sequence (P43140 whole entry): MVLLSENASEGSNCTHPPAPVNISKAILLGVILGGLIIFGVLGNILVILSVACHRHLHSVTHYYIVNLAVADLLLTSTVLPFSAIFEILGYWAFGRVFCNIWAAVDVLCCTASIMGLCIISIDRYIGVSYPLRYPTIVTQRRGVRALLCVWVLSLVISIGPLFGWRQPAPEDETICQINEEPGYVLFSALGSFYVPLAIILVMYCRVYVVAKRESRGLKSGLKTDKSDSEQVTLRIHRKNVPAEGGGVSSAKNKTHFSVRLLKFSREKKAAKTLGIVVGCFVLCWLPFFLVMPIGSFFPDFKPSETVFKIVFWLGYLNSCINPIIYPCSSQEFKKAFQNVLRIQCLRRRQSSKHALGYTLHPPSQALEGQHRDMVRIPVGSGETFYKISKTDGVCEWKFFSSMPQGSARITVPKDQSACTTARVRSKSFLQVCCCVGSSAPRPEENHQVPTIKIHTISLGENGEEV
Description: Binding affinity measured at the Alpha-1A adrenergic receptor by the inhibition of [3H]prazosin binding to rat cortex using unlabeled WB-4101 for nonspecific binding.

[16] = target: T5, D(4) dopamine receptor (Homo sapiens, UniProt P21917); experiment: biochemical
T5 sequence (P21917 whole entry): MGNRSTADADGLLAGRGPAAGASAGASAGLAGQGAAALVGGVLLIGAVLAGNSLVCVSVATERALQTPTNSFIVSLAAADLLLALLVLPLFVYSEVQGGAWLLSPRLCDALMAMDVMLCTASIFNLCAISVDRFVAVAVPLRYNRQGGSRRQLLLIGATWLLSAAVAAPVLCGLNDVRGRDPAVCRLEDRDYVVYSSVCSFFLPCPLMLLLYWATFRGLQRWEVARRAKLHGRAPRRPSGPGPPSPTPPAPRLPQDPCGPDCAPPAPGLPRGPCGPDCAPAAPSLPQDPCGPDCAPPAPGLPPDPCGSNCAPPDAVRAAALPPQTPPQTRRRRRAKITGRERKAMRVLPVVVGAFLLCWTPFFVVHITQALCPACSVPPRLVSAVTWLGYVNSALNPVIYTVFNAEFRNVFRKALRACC

[17] = target: D(1A) dopamine receptor (Rattus norvegicus, UniProt P18901); experiment: biochemical
Description: Binding affinity measured at the Dopamine receptor D1 by the inhibition of [3H]SCH-23390 binding to rat striatum using unlabeled apomorphine for nonspecific binding.

[18] = target: Beta-1 adrenergic receptor (Rattus norvegicus, UniProt P18090); experiment: Binding affinity measured at the Beta-1 adrenergic receptor by the inhibition of [3H]DHA binding to rat cortex using unlabeled isoprenalin for nonspecific binding.
Beta-1 adrenergic receptor, sequence (P18090 whole entry): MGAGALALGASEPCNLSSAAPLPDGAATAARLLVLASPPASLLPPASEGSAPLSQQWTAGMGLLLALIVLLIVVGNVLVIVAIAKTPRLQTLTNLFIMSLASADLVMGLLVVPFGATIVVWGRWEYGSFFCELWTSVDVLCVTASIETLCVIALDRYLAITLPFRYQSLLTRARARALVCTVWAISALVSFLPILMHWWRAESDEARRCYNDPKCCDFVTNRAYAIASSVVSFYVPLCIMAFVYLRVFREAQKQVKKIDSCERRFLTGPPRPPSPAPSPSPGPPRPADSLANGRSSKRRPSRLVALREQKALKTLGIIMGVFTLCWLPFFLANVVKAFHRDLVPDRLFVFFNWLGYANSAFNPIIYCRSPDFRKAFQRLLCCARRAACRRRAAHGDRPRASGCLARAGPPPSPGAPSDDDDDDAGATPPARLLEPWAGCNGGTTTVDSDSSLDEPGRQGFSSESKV

T1 sequence (P14842 whole entry): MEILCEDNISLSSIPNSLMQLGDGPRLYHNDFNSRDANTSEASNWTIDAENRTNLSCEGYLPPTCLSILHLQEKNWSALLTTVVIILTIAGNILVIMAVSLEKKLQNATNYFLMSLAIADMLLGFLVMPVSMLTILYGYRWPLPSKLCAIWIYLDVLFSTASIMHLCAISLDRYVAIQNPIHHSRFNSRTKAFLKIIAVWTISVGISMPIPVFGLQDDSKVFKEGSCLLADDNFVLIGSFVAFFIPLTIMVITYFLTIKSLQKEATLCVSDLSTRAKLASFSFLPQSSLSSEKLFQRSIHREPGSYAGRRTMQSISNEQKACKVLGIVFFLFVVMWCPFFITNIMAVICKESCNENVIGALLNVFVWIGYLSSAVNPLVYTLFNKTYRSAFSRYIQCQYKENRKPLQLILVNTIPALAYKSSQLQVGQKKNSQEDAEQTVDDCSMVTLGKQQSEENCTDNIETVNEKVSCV
D(1A) dopamine receptor, sequence (P18901 whole entry): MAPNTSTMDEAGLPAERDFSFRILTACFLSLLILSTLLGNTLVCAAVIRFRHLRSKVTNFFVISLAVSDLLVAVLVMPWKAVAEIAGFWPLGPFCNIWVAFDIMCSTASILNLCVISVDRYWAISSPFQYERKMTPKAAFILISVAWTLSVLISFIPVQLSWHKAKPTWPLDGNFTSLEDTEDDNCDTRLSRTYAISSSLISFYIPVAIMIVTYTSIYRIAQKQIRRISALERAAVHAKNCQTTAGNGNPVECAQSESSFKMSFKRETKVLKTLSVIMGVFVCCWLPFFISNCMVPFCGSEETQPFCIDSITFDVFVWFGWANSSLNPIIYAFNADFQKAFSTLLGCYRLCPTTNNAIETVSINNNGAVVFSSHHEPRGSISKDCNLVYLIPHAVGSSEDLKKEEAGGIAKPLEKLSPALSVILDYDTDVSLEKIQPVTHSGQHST
D(3) dopamine receptor, sequence (P35462 whole entry): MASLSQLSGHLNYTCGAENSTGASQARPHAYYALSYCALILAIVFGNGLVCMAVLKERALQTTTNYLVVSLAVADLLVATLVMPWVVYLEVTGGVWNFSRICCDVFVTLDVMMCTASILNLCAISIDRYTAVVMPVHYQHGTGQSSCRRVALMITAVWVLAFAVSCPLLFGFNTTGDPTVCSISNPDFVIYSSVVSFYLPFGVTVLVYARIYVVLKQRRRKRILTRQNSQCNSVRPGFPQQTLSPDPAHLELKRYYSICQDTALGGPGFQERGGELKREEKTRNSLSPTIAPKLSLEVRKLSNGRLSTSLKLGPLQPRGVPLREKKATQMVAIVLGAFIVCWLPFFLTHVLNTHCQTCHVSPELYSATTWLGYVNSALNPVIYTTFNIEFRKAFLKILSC

pIC50 [1]	SMILES	ED50 [2] [mg/kg]	ED50 [3] [mg/kg]	ED50 [9] [mg/kg]	ED50 [10] [mg/kg]	other results
7.60	Cc1coc2cc(OCCCN3CCC(C(=O)c4ccc(F)cc4)CC3)ccc2c1=O					
7.48	O=C(c1ccc(F)cc1)C1CCN(CCCOc2ccc3c(=O)c(CO)coc3c2)CC1	2.02	13			
	O=Cc1coc2cc(OCCCN3CCC(c4noc5cc(F)ccc45)CC3)ccc2c1=O	3.32				ED50 [4]: 15.9 mg/kg
8.85	COCc1coc2cc(OCCCN3CCC(c4noc5cc(F)ccc45)CC3)ccc2c1=O	0.27	6.88			
	Cc1coc2cc(OCCCN3CCC(c4noc5cc(F)ccc45)CC3)ccc2c1=O	0.4	2.85			
8.14	O=c1cc(CO)oc2cc(OCCCN3CCC(c4noc5cc(F)ccc45)CC3)ccc12	5.88	> 100			
	O=C(O)c1coc2cc(OCCCN3CCC(c4noc5cc(F)ccc45)CC3)ccc2c1=O	> 10	> 50			
8.07	O=c1ccoc2cc(OCCCN3CCC(c4noc5cc(F)ccc45)CC3)ccc12	1.08	12.6			
8.21	O=c1c(CO)coc2cc(OCCCN3CCC(c4noc5cc(F)ccc45)CC3)ccc12 [ABAPERIDONE]	0.24	8.48	0.31	0.16	pKi [5]: 7.03; Ki [6]: 0.169 µM; Ki [7]: 2.99 µM; pKi [8]: 8.27; Ki [11]: 1.13 µM; ED50 [12]: 18.6 mg/kg; ED50 [13]: 0.08 mg/kg; pKi [14]: 8.72; pKi [15]: 8.62; pKi [16]: 6.75; pKi [17]: 6.62
	CN1CCN(C2=Nc3cc(Cl)ccc3Nc3ccccc32)CC1 [CLOZAPINE]	15.4	> 100	0.33	6.41	ED50 [12]: > 100 mg/kg; ED50 [13]: 0.85 mg/kg
	O=C(CCCN1CCC(O)(c2ccc(Cl)cc2)CC1)c1ccc(F)cc1 [HALOPERIDOL]	0.31	2	0.28	0.3	ED50 [13]: 0.56 mg/kg
	Cc1nc2n(c(=O)c1CCN1CCC(c3noc4cc(F)ccc34)CC1)CCCC2 [RISPERIDONE]	0.29	5	0.41	0.2	pKi [18]: 4.66; ED50 [12]: 9.7 mg/kg
